Test [1] has as its system mouse. The test is described as follows: Tactile allodynia produced by nitroglycerin (migraine model, mouse). It is filed as in vivo. The note with it: route sc, nitroglycerin 10 mg/kg ip, p < 0.05 vs vehicle; for minimal effective dose: read-out: Active Migraine Doses. On the procedure:
Compounds were tested for efficacy in rodent models of nitroglycerine induced migraine. In this model both rats and mice can be induced to have a behavioral response consistent with the progression of a migraine attack by the intraperitoneal injection of nitroglycerin. In this test mice or rats (n=8/group) are given an intraperitoneal injection of nitroglycerin at 10 mg/kg. After 90 minutes the animals are subcutaneously dosed with test compound. A measurement of mechanical allodynia will be obtained using the up/down method with seven von Frey monofilaments. There is a specific series used for rat and mouse. Each monofilament is delivered to the hind paw for approximately 1-2 seconds. If there is a response, the next lower force will be delivered. This procedure will be performed until no response was made at the highest force or until four stimuli are administered following the initial response. The 50% paw withdrawal threshold for the hind paw will be calculated using the following formula: [Xth]log=[vFr]log+ky where [vFr] is the force of the last von Frey used, k is the average interval (in log units) between the von Frey monofilaments, and y is a value that depends upon the pattern of withdrawal responses. Testing for tactile sensitivity will be performed and a withdrawal value will be assigned as the tactile sensitivity (expressed in grams of force required to elicit a response) for the injected paw for each animal. Data is presented as the mean grams required to produce a hind paw withdrawal from the von Frey stimulus. […] Compounds found to be effective in this model of migraine at the doses indicated, although other doses may also be active. Other compounds described herein were not necessarily tested, but are expected to be able have some level of efficacy.

Test [2] deals with adult male C57 mice. The test is described as follows: Tail suspension test (TST). The class given is in vivo, mouse. The note with it: route sc, p < 0.05 compared to vehicle-treated mice; for minimal effective dose: Mus musculus, read-out: Active TST Dose. On the procedure: The experiments were performed using adult male C57 mice (6-10 weeks of age, 20-30 g, Hilltop Lab, PA). The mice were housed in standard rodent cages with stainless steel mesh wire bar lids in groups of 4 with controlled temperature and light cycle (6:00 a.m.-6:00 p.m.). Animals were given free access to food (Harlan Teklad Global 18% protein (Madison, Wis.)) and water during a minimum 2-day habituation period to the laboratory. Animals that were used in the study were handled, housed, and sacrificed (using compressed CO2) in accord with the current NIH guidelines regarding the use and care of laboratory animals, and all applicable local, state, and federal regulations and guidelines. Animals are identified by cage number, and by markings applied to the proximal tip of the tail using a permanent marker. Group sizes (n=8, and therefore 30-50 animals per study) provide reliable estimates of treatment effects, and this species and strain of mouse has been recognized as appropriate for pharmacology studies.
To measure efficacy of the compounds the compounds were tested using a tail suspension test. The tail suspension test is a behavioral test used to evaluate the efficacy of antidepressant drugs in rodents. In the TST, mice (n=8/group) were suspended by the tail with tape approximately 30-50 cm above the lab bench. Mice are positioned such that the base of their tail is perpendicular to the lab bench. Each mouse is given 1 trial that last 6 minutes. The total duration of immobility is calculated as the percentage of time that the mouse is immobile. The duration of immobility is the main parameter measured. This is calculated from the cumulated time during which the animals is absent of initiated movements including passive swaying. When antidepressant drugs are administered, immobility is decreased by a variety of classes of antidepressant drugs. One or more of the compounds show antidepressant activity.

In test [3] the test system is rat. Briefly: Tactile allodynia produced by nitroglycerin (migraine model, rat). The class given is in vivo. The note with it: route sc, nitroglycerin 10 mg/kg ip, p < 0.05 vs vehicle.
Test [4] relates to rat. The test is described as follows: Mechanical allodynia after Freund's Complete Adjuvant, Randall-Selitto (rat). It is filed as in vivo. The note with it: route sc, p < 0.05 vs vehicle. On the procedure: (§1) Animals were acclimated to the vivarium for at least 48 hr prior to behavioral testing. Inflammation was induced for both rodent species with the administration of an intraplantar (subcutaneous injection into the plantar surface of the hind paw, i.pl.) injection of 0.10 ml Freund's Complete Adjuvant (FCA).
For rat studies, the experiments were conducted 24 hours after CFA administration. Rats are tested for mechanical allodynia in a Randall-Selitto apparatus. The inflamed paw is put on a pedestal and a pointed force of increasing intensity (0 to 250 grams) is applied to the paw. When the animal struggles to withdraw from the force the test is stopped and the force to induce that struggle is recorded. Data may be presented as mean grams of force to withdrawal or a percentage of the maximum possible effect.

Test [5] relates to mouse. The test is described as follows: Tactile allodynia produced by intraplantar Freund's Complete Adjuvant, von Frey (mouse). It is filed as in vivo. The note with it: route sc, p < 0.05 vs vehicle. How it is done: as §1
For mouse studies, the experiments were conducted 48 hours after FCA administration. Tactile allodynia was measured using a series of von Frey monofilaments. These filaments are bendable, plastic and intended to poke, not penetrate, the skin. Animals were placed in a Plexiglas chamber (approximately 10 cm×20 cm×25 cm) and allowed to habituate for 5-10 minutes. The chamber was positioned on top of a mesh screen so that von Frey monofilaments can be presented to the plantar surface of the hind paw that is inflamed. The measurement of tactile sensitivity for the injected hind paw is obtained using the up/down method (LaBuda and Little, 2005, J Neurosci. Methods, 144, 175) with […]. Each trial will start with a von Frey force of 0.6 grams delivered to the hind paw for approximately 1-2 seconds. If there was no withdrawal response, the next higher force was be delivered. If there was a response, the next lower force was delivered. This procedure was performed until no response was made at the highest force (2 grams) or until four stimuli are administered following the initial response. The 50% paw withdrawal threshold for the hind paw was be calculated using the following formula: [Xth]log=[vFi]log+ky where [vFr] is the force of the last von Frey used, k is the average interval (in log units) between the von Frey monofilaments, and y is a value that depends upon the pattern of withdrawal responses (Dixon, Annual Review Pharmacol Toxicol, 1980, 20, 441).

Where two headings read alike, the source gives them in different places.

Regarding `COCCOc1ccc([C@@H]2CCN(CCc3ccccc3)[C@H](C)[C@H]2COc2ccc3c(c2)C(=O)NC3)cc1F` [Compound B1194, (−)-6-{[trans, trans-4-[3-fluoro-4-(2-methoxyethoxy)phenyl]-2-methyl-1-(2-phenylethy)piperidin-3-yl]methoxy}-2,3-dihydro-1H-isoindol-1-one], the minimal effective dose in test [1] and in test [2] was not above 10 mg/kg each time.

Turning to `C[C@@H]1[C@@H](COc2ccc3c(c2)C(=O)NC3)[C@H](c2ccccc2)CCN1CCC=C(F)F` [Compound B1211], the minimal effective dose in test [1] and in test [2] was not above 10 mg/kg throughout.

Take `COCCOc1ccc([C@@H]2CCN(CCn3cccc3)[C@H](C)[C@H]2COc2ccc3c(c2)C(=O)NC3)cc1F` [Compound B1205, (−)-6-{[trans, trans-4-[3-fluoro-4-(2-methoxyethoxy)phenyl]-2-methyl-1-[2-(1H-pyrrol-1-yl)ethyl]piperidin-3-yl]methoxy}-2,3-dihydro-1H-isoindol-1-one]: the minimal effective dose is not above 10 mg/kg in test [1] and not above 30 mg/kg in test [2] (po). Also, in test [3], the “Active Migraine Doses” value is given as not above 10 mg/kg.

`COc1ccc([C@@H]2CCN(CCn3cccc3)[C@H](C)[C@H]2COc2ccc3c(c2)C(=O)NC3)cc1` [Compound B0876, (−)-6-{[trans, trans-4-(4-methoxyphenyl)-2-methyl-1-[2-(1H-pyrrol-1-yl)ethyl]piperidin-3-yl]methoxy}-2,3-dihydro-1H-isoindol-1-one]: the minimal effective dose in test [1] was not above 10 mg/kg; in test [2] (po), not above 30 mg/kg. In addition, the “Active Migraine Doses” value in test [3] was not above 10 mg/kg.

As for `C[C@@H]1[C@@H](COc2ccc3c(c2)C(=O)NC3)[C@H](c2ccc(F)cc2)CCN1CC1CC1` [Compound B0720], the minimal effective dose in test [1] and in test [2] (po) was not above 10 mg/kg each time. Besides, the “Active CFA Dose” value in test [4] is listed as not above 30 mg/kg.

On to `CC1C(COc2ccc3c(c2)C(=O)NC3)C(c2ccc3c(c2)OCCC3)CCN1CCn1cccc1` (single isomer, unassigned; (-)) [Compound B1365, (−)-6-{[trans, trans-4-(3,4-dihydro-2H-1-benzopyran-7-yl)-2-methyl-1-[2-(1H-pyrrol-1-yl)ethyl]piperidin-3-yl]methoxy}-2,3-dihydro-1H-isoindol-1-one], for which the “Active Migraine Doses” value in test [1] and in test [3] was not above 10 mg/kg in each case. For the same molecule, the “Active TST Dose” value in test [2] is on record as not above 10 mg/kg.

`COc1cc(F)cc(C2CCN(CCn3cccc3)C(C)C2COc2ccc3c(c2)C(=O)NC3)c1` (mixture of isomers) [Compound B1274, (+/−)-6-{[(trans, trans)-4-(3-fluoro-5-methoxyphenyl)-2-methyl-1-[2-(1H-pyrrol-1-yl)ethyl]piperidin-3-yl]methoxy}-2,3-dihydro-1H-isoindol-1-one]: the “Active TST Dose” value in test [2] is given as not above 10 mg/kg.

Turning to `COCCOc1ccc([C@@H]2CCN(CCc3ccccc3F)[C@H](C)[C@H]2COc2ccc3c(c2)C(=O)NC3)cc1` [Compound B1079], the minimal effective dose in test [2] (po) was not above 30 mg/kg.

Consider `COc1cc(F)cc([C@@H]2CCN(CCn3cccc3)[C@H](C)[C@H]2COc2ccc3c(c2)C(=O)NC3)c1` (racemic) [Compound B1401, (−)-6-{[trans, trans-4-(3-fluoro-5-methoxyphenyl)-2-methyl-1-[2-(1H-pyrrol-1-yl)ethyl]piperidin-3-yl]methoxy}-2,3-dihydro-1H-isoindol-1-one], for which the minimal effective dose in test [1] and in test [2] was not above 10 mg/kg in each case. The “Active Migraine Doses” value in test [3] is not above 10 mg/kg.

Consider `COc1ccc([C@@H]2CCN(CCC=C(F)F)[C@H](C)[C@H]2COc2ccc3c(c2)C(=O)NC3)cc1` [Compound B1145, (−)-6-{[trans, trans-1-(4,4-difluorobut-3-en-1-yl)-4-(4-methoxyphenyl)-2-methylpiperidin-3-yl]methoxy}-2,3-dihydro-1H-isoindol-1-one], for which the minimal effective dose in test [1] and in test [2] (po) was not above 10 mg/kg each time. Further, the “Active CFA Dose” value in test [5] is on record as not above 10 mg/kg.

The record behind these values is patent US11465980B2, “6-membered aza-heterocyclic containing delta-opioid receptor modulating compounds, methods of using and making the same” (Trevena, Inc., priority 2015, dated 2022).
